Patent US20080125432A1 (Devgen NV, priority 2004, published 2008)
pIC50: −log10 of the molar value. Where two headings read alike, the source gives them in different places.

Assays:
[1] = target: T1, human Kv4.3/KChIP2.2 potassium channel (Homo sapiens, UniProt Q9UK17); assay: Whole cell patch clamp, CHO-K1 cells stably expressing human Kv4.3/KChIP2.2; assay type: cell-based; details: for pIC50: Kv4.3 mediated current, charge, patch clamp, read-out: Kv4.3 charge IC50; for IC50: estimated by Hill fit with hill=1, ymax=100, tested at 2 μM, n=2, read-out: IC50 (μM) Kv4.3; for remaining activity at 1 µM: CHO-K1
T1 construct: expressed in transfected cells
T1 sequence (Q9UK17 1-655): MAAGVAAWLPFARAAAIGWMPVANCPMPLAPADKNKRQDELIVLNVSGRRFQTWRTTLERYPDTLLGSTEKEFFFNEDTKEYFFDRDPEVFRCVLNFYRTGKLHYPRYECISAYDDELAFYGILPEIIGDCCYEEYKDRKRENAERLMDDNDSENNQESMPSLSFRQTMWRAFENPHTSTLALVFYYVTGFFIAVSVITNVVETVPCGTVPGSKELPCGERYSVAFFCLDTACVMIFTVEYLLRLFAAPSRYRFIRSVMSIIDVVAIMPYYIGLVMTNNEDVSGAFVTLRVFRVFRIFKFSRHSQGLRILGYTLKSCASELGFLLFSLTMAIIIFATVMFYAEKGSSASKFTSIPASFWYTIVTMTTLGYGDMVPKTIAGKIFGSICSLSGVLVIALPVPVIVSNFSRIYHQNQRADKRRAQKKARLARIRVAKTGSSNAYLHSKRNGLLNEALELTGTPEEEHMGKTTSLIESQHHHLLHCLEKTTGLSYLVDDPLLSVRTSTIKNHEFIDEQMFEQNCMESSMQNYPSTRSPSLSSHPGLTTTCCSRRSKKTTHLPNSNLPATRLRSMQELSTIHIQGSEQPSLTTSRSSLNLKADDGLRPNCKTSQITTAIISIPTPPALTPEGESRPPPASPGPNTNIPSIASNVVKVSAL

[2] = system: human Kv4.3/KChIP2.2 potassium channel; assay: as above; assay type: cell-based; details: selectivity for Kv4.3 vs hERG (Patch Clamp test); >5 considered very selective
[3] = remaining current measured after application of the compound and relative to the blank, read-out: Kv4.3 charge in %
[4] = remaining peak height measured after application of the compound and relative to the blank, read-out: Kv4.3 peak in %

pIC50 [1]	IC50 [1]	melting point	remaining activity at 1 µM [1, 3]	remaining activity at 1 µM [1, 4]	Compound	Ratio hERG/Kv4.3 [2]
6.47	0.34 µM	–	–	–	2-(4-bromo-phenylamino)-4-methyl-thiazole-5-carboxylic acid 1,2,3,4-tetrahydroisoquinolinamide [Compound 66]	29.1
–	1.84 µM	–	–	–	Cc1nc(Nc2ccc(F)cc2)sc1C(=O)N[C@H](C)c1ccc2ccccc2c1 [Compound 16, 2-(4-fluoro-phenylamino)-4-methyl-thiazole-5-carboxylic acid (R)-1-(naphthalen-2-yl)ethyl amide]	–
–	3.85 µM	–	–	–	Cc1nc(Nc2ccc(Br)cc2)sc1C(=O)N[C@@H](C)c1ccc2ccccc2c1 [Compound 18, 2-(4-bromo-phenylamino)-4-methyl-thiazole-5-carboxylic acid (S)-1-(naphthalen-2-yl)ethyl amide]	6.9
–	2.72 µM	–	–	–	Cc1nc(Nc2ccc(Br)cc2)sc1C(=O)N[C@H](C)c1ccc2ccccc2c1 [Compound 19, 2-(4-bromo-phenylamino)-4-methyl-thiazole-5-carboxylic acid (R)-1-(naphthalen-2-yl)ethyl amide]	33.1
5.90	1.25 µM	–	–	–	Cc1nc(Nc2ccc(Cl)cc2)sc1C(=O)N[C@@H]1CCC[C@H]1OCc1ccccc1 [Compound 30, 2-(4-chloro-phenylamino)-4-methyl-thiazole-5-carboxylic acid (1R,2R)-2-(benzyloxycyclopent-1-yl) amide]	8.7
–	2.91 µM	–	–	–	COc1ccccc1Nc1nc(C)c(C(=O)N[C@@H]2CCC[C@H]2OCc2ccccc2)s1 [Compound 31, 2-(2-methoxy-phenylamino)-4-methyl-thiazole-5-carboxylic acid (1R,2R)-2-(benzyloxycyclopent-1-yl) amide]	8.7
–	3.35 µM	–	–	–	COc1ccc(OC)c(Nc2nc(C)c(C(=O)N[C@@H]3CCC[C@H]3OCc3ccccc3)s2)c1 [Compound 33, 2-(2,5-dimethoxyphenylamino)-4-methylthiazole-5-carboxylic acid (1R,2R)-2-(benzyloxycyclopent-1-yl) amide]	10.0
–	1.62 µM	–	–	–	COc1cccc([C@@H](C)NC(=O)c2sc(Nc3cc(Cl)ccc3OC)nc2C)c1 [Compound 34]	5.4
6.47	0.34 µM	–	–	–	Cc1nc(Nc2ccc(Cl)cc2)sc1C(=O)N[C@H](C)c1ccc2ccccc2c1 [Compound 52, 2-(4-chloro-phenylamino)-4-methyl-thiazole-5-carboxylic acid (R)-1-(2-naphtalen-2-yl-ethyl)-amide]	65.4
5.62	2.41 µM	–	–	–	Cc1nc(Nc2ccc(Cl)cc2)sc1C(=O)N[C@@H](C)c1ccc2ccccc2c1 [Compound 54, 2-(4-chloro-phenylamino)-4-methyl-thiazole-5-carboxylic acid (S)-1-(2-naphtalen-2-yl-ethyl)-amide]	6.6
–	2.02 µM	–	–	–	COc1ccccc1Nc1nc(C)c(C(=O)N[C@@H](C)c2ccc3ccccc3c2)s1 [Compound 55, 2-(2-methoxy-phenylamino)-4-methyl-thiazole-5-carboxylic acid (S)-1-(2-naphtalen-2-yl-ethyl)-amide]	5.0
5.97	1.07 µM	–	–	–	Cc1nc(Nc2ccc(Br)cc2)sc1C(=O)NCc1cccc2ccccc12 [Compound 56, 2-(4-bromo-phenylamino)-4-methyl-thiazole-5-carboxylic acid (naphtalen-1-yl-methyl)-amide]	6.6
–	0.39 µM	–	–	–	COc1ccc(CNC(=O)c2sc(Nc3ccc(Br)cc3)nc2C)cc1 [Compound 60, 2-(4-bromo-phenylamino)-4-methyl-thiazole-5-carboxylic acid 4-methoxy-benzylamide]	7.7
–	0.16 µM	–	–	–	Cc1nc(Nc2ccc(Br)cc2)sc1C(=O)NCc1ccc(F)c(C(F)(F)F)c1 [Compound 63, 2-(4-bromo-phenylamino)-4-methyl-thiazole-5-carboxylic acid 4-fluoro-3-trifluoromethyl-benzylamide]	33.1
–	–	69.7 to 71.6 °C	41%	81%	COc1ccccc1Nc1ccc(C(=O)N[C@H]2CCC[C@@H]2OCc2ccccc2)s1 [Compound 75, 2-(2-methoxy-phenylamino)-thiophene-5-carboxylic acid ((1S,2S)-2-benzyloxycyclopent-1-yl) amide]	–
–	–	97.3 to 99.8 °C	62%	99%	COc1ccccc1Nc1nccc(C(=O)N[C@H]2CCC[C@@H]2OCc2ccccc2)n1 [Compound 76, 2-(2-methoxy-phenylamino)-pyrimidine-4-carboxylic acid ((1S,2S)-2-benzyloxycyclopent-1-yl) amide]	–
–	–	129.5 to 132.4 °C	51%	90%	Cc1nc(Sc2ccccc2)sc1C(=O)N[C@H]1CCC[C@@H]1OCc1ccccc1 [Compound 81, 4-methyl-2-phenylsulfanyl-thiazole-5-carboxylic acid ((1S,2S)-2-benzyloxycyclopent-1-yl) amide]	–
–	–	102.4 to 108.2 °C	62%	89%	Cc1nc(Nc2cccc3ccccc23)sc1C(=O)N[C@H]1CCC[C@@H]1OCc1ccccc1 [Compound 93]	–
–	–	–	49%	89%	Cc1nc(Nc2cccc3cccnc23)sc1C(=O)N[C@H]1CCC[C@@H]1OCc1ccccc1 [Compound 94, 4-methyl-2-(quinolin-8-ylamino)-thiazole-5-carboxylic acid ((1S,2S)-2-benzyloxycyclopent-1-yl) amide]	–
–	–	178 to 180.1 °C	61%	91%	Cc1nc(Nc2ccc3c(c2)OCCO3)sc1C(=O)N[C@H]1CCC[C@@H]1OCc1ccccc1 [Compound 95]	–
–	–	66.5 °C	66%	96%	COc1ccccc1Nc1nc(C)c(C(=O)NCc2ccccc2SC)s1 [Compound 97]	–
–	–	105.4 to 107.6 °C	59%	90%	COc1ccccc1Nc1nc(C)c(C(=O)NCc2c(C)cccc2Cl)s1 [Compound 98, 2-(2-methoxy-phenylamino)-4-methyl-thiazole-5-carboxylic acid 2-chloro-6-methyl-benzylamide]	–
–	–	136.5 to 140.1 °C	77%	93%	COc1ccccc1Nc1nc(C)c(C(=O)NCc2ccc3c(c2)CCO3)s1 [Compound 104, 2-(2-methoxy-phenylamino)-4-methyl-thiazole-5-carboxylic acid (2,3-dihydro-benzofuran-5-ylmethyl)-amide]	–
–	–	183.3 to 185.2 °C	61%	77%	COc1ccccc1Nc1nc(C)c(C(=O)NCc2ccc(N(C)C)cc2)s1 [Compound 105, 2-(2-methoxy-phenylamino)-4-methyl-thiazole-5-carboxylic acid 4-dimethylamino-benzylamide]	–
–	–	168.5 to 169.4 °C	58%	98%	COc1ccccc1Nc1nc(C)c(C(=O)NCc2ccc(C(C)(C)C)cc2)s1 [Compound 106, 2-(2-methoxy-phenylamino)-4-methyl-thiazole-5-carboxylic acid 4-tert-butyl-benzylamide]	–
–	–	150.7 to 154.2 °C	59%	82%	COc1ccccc1Nc1nc(C)c(C(=O)NCc2ccc(Br)cc2)s1 [Compound 108, 2-(2-methoxy-phenylamino)-4-methyl-thiazole-5-carboxylic acid 4-bromo-benzylamide]	–
–	–	164.4 to 169.3 °C	58%	89%	Cc1nc(Nc2ccc3occc3c2)sc1C(=O)N[C@H]1CCC[C@@H]1OCc1ccccc1 [Compound 126, 2-(benzofuran-5-ylamino)-4-methyl-thiazole-5-carboxylic acid ((1S,2S)-2-benzyloxycyclopent-1-yl) amide]	–
–	–	88.7 to 90 °C	73%	97%	Cc1nc(NC(=O)c2ccc(C(C)(C)C)cc2)sc1C(=O)N[C@H]1CCC[C@@H]1OCc1ccccc1 [Compound 180, 2-(4-tert-butyl-benzoylamino)-4-methyl-thiazole-5-carboxylic acid ((1S,2S)-2-benzyloxycyclopent-1-yl) amide]	–
